# Experimental data taken from paper PMC9029893 (International Journal of Molecular Sciences, 2022).
# Key:
# HUVEC cells [1] = assay: HUVEC integrity in RTCA-DP system (normalized cell index); type: cell-based, human
# Description: The effects of sulfonamides 1–8 on the integrity and barrier properties of HUVEC were examined in real-time using a cell electric impedance monitoring system (Real-Time Cell Analyzer; Roche & ACEA Biosciences, Santa Clara, CA, USA), which is based on tracking electrical impedance signals. Any changes in cell status, adhesion, and morphology are expressed by parameter Cell Index (CI). The experimental protocol has been described previously. Briefly, the cells were seeded at a density of 15,000 cells per well on E-16 plates (Roche & ACEA Biosciences, Santa Clara, CA, USA), and cultured until the cells achieved plateau phase. Then, the medium was discarded from each well, and the solutions of the test compounds dissolved in cell culturing medium (100 μL) or pure medium (100 μL, control) were added. The measurements were then carried out for 48 h. The results are presented as mean ± SD of ‘normalized cell index’ (nCI), which is calculated by the division of a CI value at a certain time point by the CI value at a reference time point. The experiments were conducted in multiplicate (n = 4–6). The method was validated and the coefficient of variability (CV) was calculated as 9.17%–15.2%, depending on the measured time point (n = 6).
# factor X = molecular target: T1, factor X (Homo sapiens, UniProt P00742); assay: Factor X activity; type: biochemical
# T1 construct: 50 µL of four-fold diluted PPP, 50 μL of deficient plasma factor X, 10 μL of the examined compound; from tissue; host or cells: platelet-poor plasma (PPP), mixed with factor X-depleted plasma (Bio-Ksel)
# Description: The activity of FX was measured optically using deficient plasma factor X [75]. The content of each sample was as follows: 50 µL of four-fold diluted PPP, 50 μL of deficient plasma factor X, 10 μL of the examined compound, and 100 µL PT reagent. The control samples contained 10 μL of distilled water and methanol (1:1). The measurement of PT time was recorded using a CoagChrom-3003 coagulometer (Bio-Ksel, Grudziadz, Poland). The activity of factor X was counted using a calibration curve (R^2 = 0.999) performed on a calibrator diluted in the range 1:5–1:80 [76]. The variation in plasma coagulation time is proportional to the concentration and activity of factor X in the patient plasma treated with the tested compounds. The coefficient of variability for the method was calculated as CV = 1.80%. The reference values for factor X activity ranged from 77–131%.
# [2] = tested on: tissue plasminogen activator (t-PA) release from HUVEC; assay: t-PA release from HUVEC (ELISA); type: cell-based, human; details: 24 h, HUVEC supernatants
# Description: The influence on tissue plasminogen activator release from HUVECs was assessed using an ELISA kit (Abcam, Cambridge, UK). HUVECs seeded at a density of 10,000 per well on 96-well plates were co-incubated with compounds 1–5 at the concentrations of 0.3 and 1.0 mM for an additional 24 h (37 °C, 5% CO2). The cell supernatants were discarded into Eppendorf tubes and preserved at −20° C until analysis. Before the tests, the samples were thawed at room temperature for 15 min, and diluted 2.5-fold with diluent in Elisa kit. The measurements of t-PA concentrations in cell supernatants were conducted according to the manufacturer’s protocol using 3,3’,5,5’-tetramethylbenzidine (TMB) as a chromogenic substrate. The concentration of t-PA in HUVEC supernatants was determined using a calibration curve (R^2 = 0.9936). The results are presented as mean ± SD, n = 6. The CV for the applied method was 7.21%.
# HUVEC cells [3] = assay: Glucose utilization assay (2-NBDG uptake); type: cell-based, human; details: 24 h, then insulin and 2-NBDG
# Description: HUVEC were seeded at a density of 20,000 cells per well in 48-well plates, and were cultured in standard conditions for 24 h (medium EGM-2; volume 0.2 mL). Following this, compounds 1–8 were added at concentrations of 0.1 and 0.3 mM, and the HUVECs were incubated for another 24 h. Cells treated with ᴅ-glucose (final concentration in a sample 0.1 mM) were used as positive controls. On the following day, the cells were rinsed with PBS (Biomed Lublin, Lublin, Poland) and cultured for two hours in glucose-free DMEM medium supplemented with 1% BSA (bovine serum albumin, Sigma, St. Louis, MO, USA). Then, the cells were co-treated with insulin (final concentration 0.0001 mM) for 30 min. Afterwards, the medium was discarded and the cells were treated with 2-NBDG (final concentration 0.05 mM) for 30 min, followed by removal of the solutions of each well. The cells were washed twice with 100 µL PBS, and lysed using 1% Triton X-100 solution in PBS. The fluorescence was recorded using a microplate reader (Biotek, Instruments, Winooski, VT, USA) at 480/530 nm.
# The concentration of intracellular 2-NBDG was calculated using a calibration curve obtained using 2-NBDG at concentrations ranging from 0.0001 to 0.025 mM in lysis buffer. The results are presented as mean ± SD, n = 4–6. The coefficient of variation for the assay was calculated (CV = 2.2%, n = 8).
# [4] = tested on: coagulation in human citrate plasma; assay: Coagulation assay (endogenous thrombin generation); type: biochemical
# Description: These reagents induce a feedback reaction leading to the generation of endogenous thrombin, and coagulation. The other experimental conditions were the same as for the CL-test (Section 4.12).
# The obtained curves were analyzed using dedicated software that estimates the following parameters: TGt—thrombin generation time (s), Fmax—maximum clotting (%T), Tf—plasma clotting time (s), Fvo—initial plasma clotting velocity (%T/min), Sf—area under the clot formation curve (%Txmin), Tc—clot stabilization time (s), S—area under the curve of coagulation (%Txmin).
# T1 sequence (P00742 41-488): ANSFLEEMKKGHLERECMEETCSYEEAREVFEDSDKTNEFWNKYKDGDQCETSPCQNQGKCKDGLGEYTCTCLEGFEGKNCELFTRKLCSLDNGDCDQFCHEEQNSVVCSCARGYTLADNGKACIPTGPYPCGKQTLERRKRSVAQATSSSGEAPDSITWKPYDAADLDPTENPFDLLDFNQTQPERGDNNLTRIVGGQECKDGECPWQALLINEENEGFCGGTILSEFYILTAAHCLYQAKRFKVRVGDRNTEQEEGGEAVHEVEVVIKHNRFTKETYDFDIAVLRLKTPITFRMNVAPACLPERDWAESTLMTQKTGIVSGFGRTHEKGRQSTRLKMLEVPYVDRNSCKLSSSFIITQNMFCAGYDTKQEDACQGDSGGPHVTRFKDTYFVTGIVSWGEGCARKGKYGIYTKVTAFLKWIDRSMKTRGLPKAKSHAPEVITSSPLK
smiles,measurement,setting,value
CCCCS(=O)(=O)NC(N)=NC(=N)N(C)C [Compound 1],normalized Cell Index (nCI),"HUVEC cells [1]; 0.3 mM, 3 hours",0.832 ± 0.091
same,normalized Cell Index (nCI),"HUVEC cells [1]; 0.3 mM, 6 hours",0.981 ± 0.085
same,normalized Cell Index (nCI),"HUVEC cells [1]; 0.3 mM, 12 hours",1.177 ± 0.149
same,normalized Cell Index (nCI),"HUVEC cells [1]; 0.3 mM, 24 hours",1.207 ± 0.149
same,normalized Cell Index (nCI),"HUVEC cells [1]; 0.3 mM, 36 hours",0.875 ± 0.090
same,normalized Cell Index (nCI),"HUVEC cells [1]; 1.0 mM, 3 hours",0.440 ± 0.032
same,normalized Cell Index (nCI),"HUVEC cells [1]; 1.0 mM, 6 hours",0.676 ± 0.062
same,normalized Cell Index (nCI),"HUVEC cells [1]; 1.0 mM, 12 hours",0.791 ± 0.067
same,normalized Cell Index (nCI),"HUVEC cells [1]; 1.0 mM, 24 hours",0.940 ± 0.077
same,normalized Cell Index (nCI),"HUVEC cells [1]; 1.0 mM, 36 hours",0.858 ± 0.054
same,Factor X activity,factor X; 0.3 mM,107.60 ± 4.62%
same,Factor X activity,factor X; 0.6 mM,104.20 ± 4.97%
same,Factor X activity,factor X; 1.5 mM,97.40 ± 8.05%
same,Released t-PA,[2]; 0.3 mM,2427.2 ± 246.0 pg/mL
same,Released t-PA,[2]; 1.0 mM,1709.5 ± 219.1 pg/mL
same,Glucose uptake (intracellular 2-NBDG),HUVEC cells [3]; 0.1 mM,0.0134 ± 0.0004 mM
same,Glucose uptake (intracellular 2-NBDG),HUVEC cells [3]; 0.3 mM,0.0142 ± 0.0007 mM
same,Fmax—maximum clotting,[4]; 0.06 mM,76.30 ± 7.79 %T
same,Fvo—initial plasma clotting velocity,[4]; 0.06 mM,97.22 ± 36.13 %T/min
same,Sc—area under the curve of a stable clot formation,[4]; 0.06 mM,458.27 ± 113.77 %T x min
same,Sf—area under the clot formation curve,[4]; 0.06 mM,140.16 ± 31.01 %T x min
same,S—overall potential of clot formation,[4]; 0.06 mM,1449.09 ± 154.09 %T x min
same,TGt—thrombin generation time,[4]; 0.06 mM,161.33 ± 35.27 s
same,Tf—plasma clotting time,[4]; 0.06 mM,155.67 ± 45.29 s
same,Fmax—maximum clotting,[4]; 0.3 mM,82.67 ± 4.79 %T
same,Fvo—initial plasma clotting velocity,[4]; 0.3 mM,117.65 ± 36.38 %T/min
same,Sc—area under the curve of a stable clot formation,[4]; 0.3 mM,544.47 ± 81.13 %T x min
same,Sf—area under the clot formation curve,[4]; 0.3 mM,104.53 ± 38.44 %T x min
same,S—overall potential of clot formation,[4]; 0.3 mM,1586.01 ± 103.04 %T x min
same,TGt—thrombin generation time,[4]; 0.3 mM,162.33 ± 37.96 s
same,Tf—plasma clotting time,[4]; 0.3 mM,109.63 ± 40.06 s
same,Fmax—maximum clotting,[4]; 0.6 mM,75.62 ± 9.88 %T
same,Fvo—initial plasma clotting velocity,[4]; 0.6 mM,96.52 ± 20.91 %T/min
same,Sc—area under the curve of a stable clot formation,[4]; 0.6 mM,444.40 ± 91.71 %T x min
same,Sf—area under the clot formation curve,[4]; 0.6 mM,119.01 ± 48.07 %T x min
same,S—overall potential of clot formation,[4]; 0.6 mM,1442.42 ± 198.39 %T x min
same,TGt—thrombin generation time,[4]; 0.6 mM,176.83 ± 57.02 s
same,Tf—plasma clotting time,[4]; 0.6 mM,138.77 ± 59.29 s
same,Fmax—maximum clotting,[4]; 1.5 mM,74.15 ± 7.83 %T
same,Fvo—initial plasma clotting velocity,[4]; 1.5 mM,107.77 ± 35.80 %T/min
same,Sc—area under the curve of a stable clot formation,[4]; 1.5 mM,452.95 ± 102.22 %T x min
same,Sf—area under the clot formation curve,[4]; 1.5 mM,114.89 ± 64.82 %T x min
same,S—overall potential of clot formation,[4]; 1.5 mM,1435.77 ± 143.80 %T x min
same,TGt—thrombin generation time,[4]; 1.5 mM,172.00 ± 43.56 s
same,Tf—plasma clotting time,[4]; 1.5 mM,135.33 ± 75.79 s
CCCCCCCCS(=O)(=O)NC(N)=NC(=N)N(C)C [Compound 2],normalized Cell Index (nCI),"HUVEC cells [1]; 0.3 mM, 3 hours",0.608 ± 0.038
same,normalized Cell Index (nCI),"HUVEC cells [1]; 0.3 mM, 6 hours",0.693 ± 0.022
same,normalized Cell Index (nCI),"HUVEC cells [1]; 0.3 mM, 12 hours",0.676 ± 0.047
same,normalized Cell Index (nCI),"HUVEC cells [1]; 0.3 mM, 24 hours",0.522 ± 0.030
same,normalized Cell Index (nCI),"HUVEC cells [1]; 0.3 mM, 36 hours",0.761 ± 0.008
same,normalized Cell Index (nCI),"HUVEC cells [1]; 1.0 mM, 3 hours",0.652 ± 0.006
same,normalized Cell Index (nCI),"HUVEC cells [1]; 1.0 mM, 6 hours",0.706 ± 0.007
same,normalized Cell Index (nCI),"HUVEC cells [1]; 1.0 mM, 12 hours",0.719 ± 0.005
same,normalized Cell Index (nCI),"HUVEC cells [1]; 1.0 mM, 24 hours",0.731 ± 0.002
same,normalized Cell Index (nCI),"HUVEC cells [1]; 1.0 mM, 36 hours",0.379 ± 0.032
same,Factor X activity,factor X; 0.3 mM,107.40 ± 6.19%
same,Factor X activity,factor X; 0.6 mM,104.00 ± 5.34%
same,Factor X activity,factor X; 1.5 mM,107.00 ± 4.00%
same,Released t-PA,[2]; 0.3 mM,1633.9 ± 263.2 pg/mL
same,Released t-PA,[2]; 1.0 mM,990.0 ± 158.5 pg/mL
same,Glucose uptake (intracellular 2-NBDG),HUVEC cells [3]; 0.1 mM,0.0139 ± 0.0003 mM
same,Glucose uptake (intracellular 2-NBDG),HUVEC cells [3]; 0.3 mM,0.0146 ± 0.001 mM
same,Fmax—maximum clotting,[4]; 0.06 mM,85.20 ± 6.52 %T
same,Fvo—initial plasma clotting velocity,[4]; 0.06 mM,124.35 ± 37.66 %T/min
same,Sc—area under the curve of a stable clot formation,[4]; 0.06 mM,562.66 ± 156.02 %T x min
same,Sf—area under the clot formation curve,[4]; 0.06 mM,91.44 ± 30.65 %T x min
same,S—overall potential of clot formation,[4]; 0.06 mM,1638.19 ± 135.59 %T x min
same,TGt—thrombin generation time,[4]; 0.06 mM,151.33 ± 26.37 s
same,Tf—plasma clotting time,[4]; 0.06 mM,98.28 ± 33.46 s
same,Fmax—maximum clotting,[4]; 0.3 mM,85.12 ± 5.67 %T
same,Fvo—initial plasma clotting velocity,[4]; 0.3 mM,142.17 ± 46.90 %T/min
same,Sc—area under the curve of a stable clot formation,[4]; 0.3 mM,602.85 ± 84.63 %T x min
same,Sf—area under the clot formation curve,[4]; 0.3 mM,79.63 ± 20.32 %T x min
same,S—overall potential of clot formation,[4]; 0.3 mM,1641.98 ± 118.29 %T x min
same,TGt—thrombin generation time,[4]; 0.3 mM,135.67 ± 25.90 s
same,Tf—plasma clotting time,[4]; 0.3 mM,85.08 ± 25.10 s
same,Fmax—maximum clotting,[4]; 0.6 mM,83.60 ± 6.72 %T
same,Fvo—initial plasma clotting velocity,[4]; 0.6 mM,140.83 ± 37.45 %T/min
same,Sc—area under the curve of a stable clot formation,[4]; 0.6 mM,583.07 ± 90.13 %T x min
same,Sf—area under the clot formation curve,[4]; 0.6 mM,88.00 ± 18.58 %T x min
same,S—overall potential of clot formation,[4]; 0.6 mM,1611.84 ± 135.58 %T x min
same,TGt—thrombin generation time,[4]; 0.6 mM,153.33 ± 21.05 s
same,Tf—plasma clotting time,[4]; 0.6 mM,91.58 ± 19.43 s
same,Fmax—maximum clotting,[4]; 1.5 mM,76.35 ± 9.75 %T
same,Fvo—initial plasma clotting velocity,[4]; 1.5 mM,120.32 ± 48.40 %T/min
same,Sc—area under the curve of a stable clot formation,[4]; 1.5 mM,511.33 ± 178.11 %T x min
same,Sf—area under the clot formation curve,[4]; 1.5 mM,87.66 ± 44.66 %T x min
same,S—overall potential of clot formation,[4]; 1.5 mM,1467.86 ± 181.79 %T x min
same,TGt—thrombin generation time,[4]; 1.5 mM,170.50 ± 31.73 s
same,Tf—plasma clotting time,[4]; 1.5 mM,101.45 ± 38.76 s
